Results taken from patent US6465521B1, “Composition for desorbing bacteria” (Ramot University Authority for Applied Research & …, priority 1988, dated 2002).

What was measured:
Assay type in all cases: cell-based
Escherichia coli CSH 57 = test: Adhesion of Escherichia coli CSH 57 to hexadecane; conditions: 0 without
Candida albicans = test: Adhesion of the yeast Candida albicans to hexadecane; conditions: for adhesion of C. albicans to hexadecane: 0.16% cetyl pyridinium chloride; for adhesion of the yeast Candida albicans: 20 without
[1] = test system: Acinetobacter calcoaceticus RAG-1 (ATCC 31012); test: Adhesion of RAG-1 to various oils (percent drop in turbidity after vortexing with oil); conditions: for Percent adhesion to: mineral oil 50 / Percent adhesion to: n-nexadecane / Percent adhesion to: soybean oil: 0.16 ml of 0.5% detergent added, vortexed 2 min
Method: In one experiment Acinetobacter calcoaceticus RAG-1 (ATCC 31012) cells were grown overnight with vigorous shaking at 30 C in brain heart infusion broth. The cells were harvested by centrifugation and washed twice in 0.2% saline. The cells were then suspended in 0.2% saline to a corrected optical density of about 15 at 400 nm (1 cm light path). To 1.2 ml of suspended bacteria in 4 ml square disposable polystyrene cuvettes were added the following: 0.16 ml of 0.5% detergent in water (or water for control) and 0.24 ml water. Following brief mixing, 0.2 ml of oil was added (vs. controls with no oil added) and the mixtures vortexed vigorously for 2 min. Following about thirty minutes, the corrected turbidity of the lower aqueous phase was measured at 400 nm. Adhesion is calculated as the percent drop in turbidity following the mixing procedure.
The ability of another cationic surface-active agent, chlorhexidine digluconate, to enhance microbial adhesions to oil droplets is shown in the following experiment. Actnetobacter calcoaceticus RAG-1 (ATCC 31012) cells were grown overnight with vigorous shaking at 30 C in brain heart infusion broth. The cells were harvested, washed by centrifugation, and suspended in 0.2% saline to a corrected optidal density of ca. 18 at […] (1 cm light path). To 1.2 ml of suspended bacteria in 4 ml square disposable polystyrene cuvettes were added the following: 0.16 ml of 0.5% chlorhexidine digluconate in water (or water for control) and 0.24 ml water. To each cuvette 0.2 ml of oil was added (vs. control with no oil added) and the mixtures vortexed vigorously for 2 min. After about thirty minutes, the turbidity of the lower aqueous phase was measured at 400 nm and corrected for non-linearity by a standard curve. Adhesion is calculated as the percent drop in corrected turbidity following the mixing procedure.

[2] = test system: Acinetobacter calcoaceticus MR-481; test: Adhesion of Acinetobacter calcoaceticus MR-481 to oil droplets; conditions: 0 without
[3] = 0.16 ml of 0.5% chlorhexidine digluconate added, 0.2 ml oil

**Q.** How did the “adhesion of Escherichia coli CSH 57 to hexadecane” value (Escherichia coli CSH 57; 0.08% cetylpyridinium chloride present) turn out when `CCCCCCCCCCCCCCCC[n+]1ccccc1` [Cetylpyridinium chloride, cetylpyridinium chloride] was run?
**A.** Its value is 98%.

**Q.** And the “adhesion of C. albicans to hexadecane” value (Candida albicans; 0.8% NaCl present)?
**A.** Its value is 18%.

**Q.** And the “adhesion of C. albicans to hexadecane” value (Candida albicans; no NaCl)?
**A.** The value was 100%.

**Q.** And the “Percent adhesion to: mineral oil 50” value ([1]; 0.2 ml oil)?
**A.** Its value is 80%.

**Q.** What about the “Percent adhesion to: n-nexadecane” value ([1]; 0.2 ml oil) of the same compound?
**A.** Its value is 83%.

**Q.** And the “Percent adhesion to: soybean oil” value ([1]; 0.2 ml oil)?
**A.** Its value is 47%.

**Q.** What about the “Adhesion of Acinetobacter calcoaceticus MR-481” value ([2]; 0.18% of cetylpyridinium chloride) of the same compound?
**A.** Its value is 97%.

**Q.** With `N=C(NCCCCCCNC(=N)NC(=N)Nc1ccc(Cl)cc1)NC(=N)Nc1ccc(Cl)cc1.O=C(O)[C@H](O)[C@@H](O)[C@H](O)[C@H](O)CO.O=C(O)[C@H](O)[C@@H](O)[C@H](O)[C@H](O)CO` [Chlorhexidine digluconate, chlorhexidine digluconate] as the compound, how does the “adhesion of Escherichia coli CSH 57 to hexadecane” value (Escherichia coli CSH 57; 0.1% chlorhexidine digluconate present) read?
**A.** Its value is 98%.

**Q.** What about the “adhesion of the yeast Candida albicans” value (Candida albicans; 0.16% chlorhexidine digluconate) of the same compound?
**A.** Its value is 100%.

**Q.** And the “Percent adhesion to Commerical soybean oil” value [1, 3]?
**A.** The value was 89%.

**Q.** What about the “Percent adhesion to Sigma soybean oil” value [1, 3] of the same compound?
**A.** Its value is 90%.

**Q.** And the “Percent adhesion to isohexadecane” value [1, 3]?
**A.** The value was 94%.

**Q.** What about the “Percent adhesion to n-hexadecane” value [1, 3] of the same compound?
**A.** The value was 95%.

**Q.** Which results are given for `CCCCCCCCCCCCOS(=O)(=O)[O-].[Na+]` [Sodium dodecyl sulphate]?
**A.** Percent adhesion to: mineral oil 50 ([1]; 0.2 ml oil): 0%; Percent adhesion to: n-nexadecane ([1]; 0.2 ml oil): 0%; Percent adhesion to: soybean oil ([1]; 0.2 ml oil): 0%; adhesion to all three test oils ([1]; added at the same concentration as the cetylpyridinium chloride (w/v)): 0%

**Q.** For chitosan, which “adhesion of Escherichia coli CSH 57 to hexadecane” value (Escherichia coli CSH 57; 0.015% chitosan present) is on record?
**A.** The value was 97%.

**Q.** What about the “adhesion of the yeast Candida albicans” value (Candida albicans; 0.025% chitosan) of the same compound?
**A.** Its value is 95%.

**Q.** And the “Adhesion of Acinetobacter calcoaceticus MR-481” value ([2]; 0.019% of chitosan)?
**A.** Its value is 99%.
